Tested on: human hepatoma Huh-7 cell line harboring a HCV replicon
Test: HCV replicon assay (inhibition of viral replication, luciferase readout)
Assay type: cell-based
Settings: Huh-7 HCV replicon cells, 3 days incubation; for inhibition at 2 µM: Hepatitis C virus, 72 h
In short: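 Read-outs: luciferase luminescence for replication inhibition, corrected by ITMN-191 (100% inhibition) wells, and calcein AM fluorescence for cytotoxicity. Cells were treated for 3 days at 37 °C with ten 3-fold compound dilutions in 0.44% final DMSO. Percent inhibition relative to DMSO was fitted with a Hill equation to give EC50 and CC50.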

Molecule	inhibition at 2 µM [%]	% inhibition at 2μM [%]
C[C@@H](CCOc1cncnc1)N(c1cc(C#CC(C)(C)C)sc1C(=O)O)C(=O)[C@H]1CC[C@H](C)CC1 [Compound 143, 5-(3,3-dimethyl-but-1-ynyl)-3-{(trans-4-methyl-cyclohexanecarbonyl)-[1-(S)-methyl-3-(pyrimidin-5-yloxy)-propyl]-amino}-thiophene-2-carboxylic acid]	100	–
CC(C)(C)C#Cc1cc(N(C(=O)[C@H]2CC[C@H](C)CC2)[C@H]2CC[C@H](Oc3ccc(=O)[nH]n3)CC2)c(C(=O)O)s1 [Compound 14, 5-(3,3-Dimethyl-but-1-ynyl)-3-{(trans-4-methyl-cyclohexanecarbonyl)-[trans-4-(6-oxo-1,6-dihydropyridazin-3-yloxy)-cyclohexyl]-amino}-thiophene-2-carboxylic acid]	100	–
CC(C)(C)C#Cc1cc(N(C(=O)[C@H]2CC[C@H](C)CC2)[C@H]2CC[C@H](Sc3nc(N)n[nH]3)CC2)c(C(=O)O)s1 [Compound 95, 3-(N-(4-(5-Amino-2H-1,2,4-triazol-3-ylthio)cyclohexyl)-4-methylcyclohexanecarboxamido)-5-(3,3-dimethylbut-1-ynyl)thiophene-2-carboxylic acid]	99.9	–
Cn1nnnc1S[C@H]1CC[C@@H](N(c2cc(C#CC(C)(C)C)sc2C(=O)O)C(=O)[C@H]2CC[C@H](C)CC2)CC1 [Compound 104, 5-(3,3-Dimethylbut-1-ynyl)-3-(4-methyl-N-(4-(1-methyl-1H-tetrazol-5-ylthio)cyclohexyl)cyclohexanecarboxamido)thiophene-2-carboxylic acid]	98.7	–
CC(C)(C)C#Cc1cc(N(C(=O)[C@H]2CC[C@H](C)CC2)[C@H]2CC[C@H](Oc3cccc(C#N)n3)CC2)c(C(=O)O)s1 [Compound 13, 3-[[trans-4-(6-Cyano-pyridin-2-yloxy)-cyclohexyl]-(trans-4-methyl-cyclohexanecarbonyl)-amino]-5-(3,3-dimethyl-but-1-ynyl)-thiophene-2-carboxylic acid]	99.3	–
CC1CCC(C(=O)N(c2cc(C#CC(C)(C)C)sc2C(=O)O)[C@H]2CC[C@H](Oc3cc(CN4CCC(O)C4)ccn3)CC2)CC1 (some centres unmarked) [Compound 190, 3-[[-4-[4-(3-hydroxy-pyrrolidin-1-ylmethyl)-pyridin-2-yloxy]-cyclohexyl]-(4-methyl-cyclohexanecarbonyl)-amino]-5-(3,3-Dimethyl-but-1-ynyl)-thiophene-2-carboxylic acid]	100	–
CC(C)(C)C#Cc1cc(N(C(=O)[C@H]2CC[C@H](C)CC2)C2CCC(Oc3cc[n+]([O-])cc3)CC2)c(C(=O)O)s1 (some centres unmarked) [Compound 157, 5-(3,3-Dimethylbut-1-ynyl)-3-(4-methyl-N-(4-(pyridin-4-yloxy-N-oxide)cyclohexyl)cyclohexanecarboxamido)thiophene-2-carboxylic acid]	99.9	–
5-(3,3-dimethylbut-1-ynyl)-3-((1r,4R)-4-methyl-N-((1s,4S)-4-(oxetan-3-yloxy)cyclohexyl)cyclohexanecarboxamido)-5-(2-(1-(trifluoromethyl)cyclopropyl)ethynyl)thiophene-2-carboxylic acid [Compound 347]	–	99.97
CC1CCC(C(=O)N(c2cc(C#CC(C)(C)C)sc2C(=O)O)[C@H]2CC[C@H](Oc3cc(CN4CCOCC4)ccn3)CC2)CC1 (some centres unmarked) [Compound 28, 5-(3,3-Dimethyl-but-1-ynyl)-3-{(4-methyl-cyclohexanecarbonyl)-[4-(4-morpholin-4-ylmethyl-pyridin-2-yloxy)-cyclohexyl]-amino}-thiophene-2-carboxylic acid]	99.7	–
CC(C)(C)C#Cc1cc(N(C(=O)[C@H]2CC[C@H](C)CC2)[C@H]2CC[C@H](Oc3cccnc3N3CCCC3)CC2)c(C(=O)O)s1 [Compound 149, 5-(3,3-Dimethylbut-1-ynyl)-3-(4-methyl-N-(4-(2-(pyrrolidin-1-yl)pyridin-3-yloxy)cyclohexyl)cyclohexanecarboxamido)thiophene-2-carboxylic acid]	99	–
CC1CCC(C(=O)N(c2cc(C#CC(C)(C)C)sc2C(=O)O)[C@H]2CC[C@H](Oc3cc(CN4CCCC4=O)ccn3)CC2)CC1 (some centres unmarked) [Compound 189, 3-[[-4-(4-pyrrolidin-2-one-1-ylmethyl-pyridin-2-yloxy)-cyclohexyl]-(4-methyl-cyclohexanecarbonyl)-amino]-5-(3,3-Dimethyl-but-1-ynyl)-thiophene-2-carboxylic acid]	99.9	–
CC(C)(C)C#Cc1cc(N(C(=O)[C@H]2CC[C@H](C)CC2)[C@H]2CC[C@H](Sc3ccccn3)CC2)c(C(=O)O)s1 [Compound 99, 5-(3,3-Dimethylbut-1-ynyl)-3-(4-methyl-N-(4-(pyridin-2-ylthio)cyclohexyl)cyclohexanecarboxamido)thiophene-2-carboxylic acid]	97.7	–
CC1CCC(C(=O)N(c2cc(C#CC(C)(C)C)sc2C(=O)O)[C@H]2CC[C@H](Oc3cc(CN(C)CCO)ccn3)CC2)CC1 (some centres unmarked) [Compound 191, 3-[[-4-[4-{[(2-hydroxy-ethyl)-methyl-amino]-1-ylmethyl}-pyridin-2-yloxy]-cyclohexyl]-(4-methyl-cyclohexanecarbonyl)-amino]-5-(3,3-Dimethyl-but-1-ynyl)-thiophene-2-carboxylic acid]	100	–
C[C@@H](CCOc1ccccn1)N(c1cc(C#CC(C)(C)C)sc1C(=O)O)C(=O)[C@H]1CC[C@H](C)CC1 [Compound 60]	97.5	–
CC1CCC(C(=O)N(c2cc(C#CC(C)(C)C)sc2C(=O)O)C2CCC(Oc3cccc(CN4CCCC4)n3)CC2)CC1 (centres unmarked) [Compound 187, 3-[[-4-(6-pyrrolidin-1-ylmethyl-pyridin-2-yloxy)-cyclohexyl]-(4-methyl-cyclohexanecarbonyl)-amino]-5-(3,3-Dimethyl-but-1-ynyl)-thiophene-2-carboxylic acid]	100	–
Cn1cnnc1S[C@H]1CC[C@@H](N(c2cc(C#CC(C)(C)C)sc2C(=O)O)C(=O)[C@H]2CC[C@H](C)CC2)CC1 [Compound 85, 5-(3,3-dimethylbut-1-ynyl)-3-(4-methyl-N-(4-(4-methyl-4H-1,2,4-triazol-3-ylthio)cyclohexyl)cyclohexanecarboxamido)thiophene-2-carboxylic]	99.6	–
CC(C)(C)C#Cc1cc(N(C(=O)[C@H]2CC[C@H](C)CC2)[C@H]2CC[C@H](OC3CCOC3)CC2)c(C(=O)O)s1 (some centres unmarked) [Compound 224, 5-(3,3-dimethylbut-1-ynyl)-3-(4-methyl-N-(4-(tetrahydrofuran-3-yloxy)cyclohexyl)cyclohexanecarboxamido)thiophene-2-carboxylic acid]	99.9	–
CC(C)(C)C#Cc1cc(N(C(=O)[C@H]2CC[C@H](C)CC2)[C@H]2C[C@H](Oc3ncccn3)C2)c(C(=O)O)s1 [Compound 23, 5-(3,3-Dimethyl-but-1-ynyl)-3-{(trans-4-methyl-cyclohexanecarbonyl)-[trans-3-(pyrimidin-2-yloxy)-cyclobutyl]-amino}-thiophene-2-carboxylic acid]	99.5	–
CC1=CCC(C(=O)N(c2cc(C#CC(C)(C)C)sc2C(=O)O)[C@H]2CC[C@H](O[C@@H]3CCOC3)CC2)[C@H](C)C1 (single isomer, unassigned) [Compound 305, 5-(3,3-dimethyl-but-1-ynyl)-3-{(4,6R-dimethyl-cyclohex-3-enecarbonyl)-[4-(tetrahydro-furan-3R-yloxy)-trans-cyclohexyl]-amino}-thiophene-2-carboxylic acid]	100	–
CC1CCC(C(=O)N(c2cc(C#CC(C)(C)C)sc2C(=O)O)[C@H]2CC[C@H](Oc3cccc(CN4CCOCC4)n3)CC2)CC1 (some centres unmarked) [Compound 188, 3-[[-4-(6-morpholin-1-ylmethyl-pyridin-2-yloxy)-cyclohexyl]-(4-methyl-cyclohexanecarbonyl)-amino]-5-(3,3-Dimethyl-but-1-ynyl)-thiophene-2-carboxylic acid]	100	–
CC(C)(C)C#Cc1cc(N(C(=O)[C@H]2CC[C@H](C)CC2)[C@H]2CC[C@H](O[C@@H]3CCNC3)CC2)c(C(=O)O)s1 [Compound 231, 5-(3,3-dimethylbut-1-ynyl)-3-(4-methyl-N-(4-((R)-pyrrolidin-3-yloxy)cyclohexyl)cyclohexanecarboxamido)thiophene-2-carboxylic acid]	99.9	–
CC(C)(C)C#Cc1cc(N(C(=O)[C@H]2CC[C@H](C)CC2)[C@H]2CC[C@H](Oc3cccc(S(C)(=O)=O)n3)CC2)c(C(=O)O)s1 [Compound 6, 5-(3,3-Dimethyl-but-1-ynyl)-3-[[trans-4-(6-methanesulfonyl-pyridin-2-yloxy)-cyclohexyl]-(trans-4-methyl-cyclohexanecarbonyl)-amino]-thiophene-2-carboxylic acid]	99.9	–
CC(C)(C)C#Cc1cc(N(C(=O)[C@H]2CC[C@H](C)CC2)[C@H]2CCN(S(=O)(=O)c3ccsc3)C2)c(C(=O)O)s1 [Compound 211, 5-(3,3-Dimethyl-but-1-ynyl)-3-{(4-methyl-cyclohexanecarbonyl)-[1-(thiophene-3-sulfonyl)-pyrrolidin-3-yl]-amino}-thiophene-2-carboxylic acid]	99.7	–
Cc1cccnc1O[C@H]1CC[C@H](N(c2cc(C#CC(C)(C)C)sc2C(=O)O)C(=O)[C@H]2CC[C@H](C)CC2)CC1 [Compound 12, 5-(3,3-Dimethyl-but-1-ynyl)-3-{(trans-4-methyl-cyclohexanecarbonyl)-[trans-4-(3-methyl-pyridin-2-yloxy)-cyclohexyl]-amino}-thiophene-2-carboxylic acid]	99.7	–
CC1CCC(C(=O)N(c2cc(C#CC(C)(C)C)sc2C(=O)O)[C@H]2CCN(CCOc3ccccn3)C2)CC1 (some centres unmarked) [Compound 321]	99.9	–
CC(C)(C)C#Cc1cc(N(C(=O)[C@H]2CC[C@H](C)CC2)[C@H]2CC[C@H](Sc3cccs3)CC2)c(C(=O)O)s1 [Compound 93, 5-(3,3-Dimethylbut-1-ynyl)-3-(4-methyl-N-(4-(thiophen-2-ylthio)cyclohexyl)cyclohexanecarboxamido)thiophene-2-carboxylic acid]	98.1	–

From US8569302B2, “Inhibitors of flaviviridae viruses” (Gilead Sciences, Inc., priority 2009, dated 2013)
